According to publication PMC12844998, “Bridging the Knowledge Gap in Harmaline’s Pharmacological Properties: A Focus on Thermodynamics and Kinetics” (Pharmaceutics, 2025):
In brackets after ≈: the same amount, converted by molar mass. Like-named read-outs stand apart in the source and are kept apart here.

Key:
[1] = Equilibrium solubility, shake-flask method; type: physicochemical; conditions: for solubility at 24 h: Hex, organic solvent or mixture, thermodynamic from solid, value given as S2×10^5, read-out: solubility S2∙105
Protocol: The equilibrium solubility of HML was measured by the shake-flask method over a wide temperature range of 293.15–313.15 K. Briefly, glass vials containing the respective solvent were charged with an excess of the drug. The vials were shaken at a predetermined temperature for 24 h—a duration previously established as sufficient to reach equilibrium between the solid and liquid phases. Following shaking, samples were equilibrated for ~5 h to prevent supersaturation and then centrifuged (10,000 rpm, 10 min; Biofuge pico, Thermo Electron LED GmbH, Osterode am Harz, Germany) at constant temperature. Concentrations were determined spectrophotometrically at 373 nm using a Cary-50 instrument (Varian, Palo Alto, CA, USA; software version 3.00 (339)) based on calibration curves. Data are presented as the mean ± standard deviation (or standard error) of at least three independent replicates. The error bars represent the standard deviation (SD), which ranged from 2% to 4% of the mean.

[2] = Permeability in Franz diffusion cell, regenerated cellulose membrane; type: in vitro ADME; conditions: RC membrane, pH 7.4, 310.15 K
Protocol: (§1) Permeability coefficients were measured in a vertical type Franz diffusion cell (PermeGear, Inc., Hellertown, PA, USA) maintained at 37 °C, with an effective diffusion area of 0.785 cm^2. The volumes of the donor (lower) and the acceptor (upper) compartments were 7 mL and 2 mL, respectively. Three artificial membranes were used in the study: Regenerated cellulose (RC): Standard Grade RC Dialysis Membrane with a molecular weight cut-off (MWCO) of 12–14 kDa and a flat width of 45 mm; PermeaPad barrier (PP): A commercially available barrier (PHABIOC, Fritz-Souchon-Str. 27, 32339 Espelkamp, Germany; www.innome.de), originally proposed by di Cagno et al.; Polydimethylsiloxane-polycarbonate membrane (PDS): A “Carbosil” membrane composed of 55% polydimethylsiloxane and 45% polycarbonate (PENTAMED, Moscow, Russia; https://medpolymer.ru/).
(§2) A solution of HML in pH 7.4 (7 mL) was placed into the donor chamber of a Franz cell. The acceptor compartment was filled with pure buffer pH 7.4 (1 mL). Over a period of 5 h, 0.5 mL samples were withdrawn from the acceptor compartment at 30 min intervals and replaced with an equal volume of fresh pH 7.4 buffer. The sample concentrations were determined by UV-Vis spectroscopy (Cary-50, Varian, Palo Alto, CA, USA; Software Version 3.00 (339)) or by HPLC (for experiments involving the polydimethylsiloxane-polycarbonate membrane). The cumulative amount of drug permeated through the membrane was plotted as a function of time. The flux was determined from the slope of the linear portion of each curve. The permeability coefficient was calculated using the following equation:(4) Papp=J/C0 where J is the flux, and C0 is the concentration of HML in the donor solution. A reverse dialysis setup was employed, where the lower chamber served as the donor compartment and was filled with the drug solution. Sink conditions were maintained in all experiments, meaning the drug concentration in the acceptor compartment never exceeded 10% of its concentration in the donor compartment at any time according the recommendations proposed in [18].

[3] = Permeability in Franz diffusion cell, polydimethylsiloxane-polycarbonate membrane; type: in vitro ADME; conditions: pH 7.4, 310.15 K
Protocol: as §1, §2
Samples from the acceptor compartment after permeation through the PDS membrane were analyzed by HPLC using a Shimadzu Prominence LC-20 AD system(Shimadzu Corporation, Kyoto, Japan) equipped with a PDA detector and a Luna® C-18 column (150 × 4.6 mm i.d., 5 μm particle size, 100 Å pore size). The column temperature was maintained at 40 °C. The mobile phase consisted of acetonitrile and water (containing 0.1% trifluoroacetic acid) in a 20:80 (v/v) ratio. An isocratic elution was performed at a flow rate of 1.0 mL·min^−1. The injection volume was 20 μL. The analytes were detected by UV at 373 nm, with a retention time of approximately 4.5 min. […]

[4] = test system: Caco-2 monolayers; assay: Literature permeability across Caco-2 monolayers; type: in vitro ADME; conditions: literature Caco-2 (ref 12) vs PP Papp
[5] = test system: MDCK cells; assay: Literature permeability across MDCK cells; type: in vitro ADME; conditions: literature MDCK (ref 12) vs PP Papp
[6] = pH 7.4, comparison with literature ref 19

COc1ccc2c3c([nH]c2c1)C(C)=NCC3 [HML, Harmaline]
solubility at pH 2.0 relative to pH 7.4 (higher) ([1]; 310.15 K): 2.2 fold | solubility at 24 h ([1]; 293.15 K): 59.2 ± 1.3 µM (≈ 12.7 µg/mL) | solubility at 24 h ([1]; 295.15 K): 65 ± 1.1 µM (≈ 13.9 µg/mL) | solubility at 24 h ([1]; 298.15 K): 75.3 ± 1.2 µM (≈ 16.1 µg/mL) | solubility at 24 h ([1]; 303.15 K): 93.2 ± 1.7 µM (≈ 20 µg/mL) | solubility at 24 h ([1]; 308.15 K): 113.9 ± 0.7 µM (≈ 24.4 µg/mL) | solubility at 24 h ([1]; 310.15 K): 130 ± 3.2 µM (≈ 27.9 µg/mL) | solubility at 24 h ([1]; 313.15 K): 145 ± 4.1 µM (≈ 31 µg/mL) | solubility at pH 7.4 relative to reserpine (more soluble) [1, 6]: 42 fold | solubility at pH 7.4 relative to vincamine (more soluble) [1, 6]: 44 fold | logPapp [2]: −4.31 | steady state flux J ([2]; C0 2.11 × 10^−3 M): 1.04 × 10^−4 µmol∙cm^−2∙s^−1 | Papp at 5 h ([2]; read-out: permeability coefficient Papp): 49.3 ×10⁻⁶ cm/s | logPapp ([3]; PDS membrane): −6.78 | steady state flux J ([3]; PDS membrane, C0 2.62 × 10^−3 M): 4.31 × 10^−7 µmol∙cm^−2∙s^−1 | Papp at 5 h ([3]; PDS membrane, read-out: permeability coefficient Papp): 0.165 ×10⁻⁶ cm/s | permeability coefficient for PDS, fold lower than for RC [3]: 299 fold | maximum difference between Caco-2 model permeability and PermeaPad result [4]: ≤ 1.4 fold | MDCK permeability coefficient, fold lower than PermeaPad result [5]: up to 2.3 fold
